Experimental findings from PubChem BioAssay (NCI) are described below.

Structures are written as SMILES.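 The compound was tested at five concentrations on cells cultured in 96-well plates, with a 48-hour exposure period. TGI marks complete inhibition of growth.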

Experiment in all cases: NCI anticancer screen, dose series, 48 h
The subject of test [1] is CAKI-1 renal.
The subject of test [2] is HCT-15 colon.
For test [3], the system named is HL-60(TB) leukemia.
For test [4], the system named is HOP-62 NSCLC.
For test [5], the system named is IGROV1 ovarian.
For test [6], the system named is M14 melanoma.
Test [7] relates to MALME-3M melanoma.
Test [8] concerns MOLT-4 leukemia.
For test [9], the system named is NCI-H522 lung.
Test [10] has as its system OVCAR-4 ovarian.
The test system of test [11] is RXF 393 renal.
Test [12] has as its system SF-539 CNS.
The test system of test [13] is SK-OV-3 ovarian.
For test [14], the system named is SNB-75 CNS.
Test [15] concerns TK-10 renal.
For test [16], the system named is UACC-62 melanoma.
For test [17], the system named is UO-31 renal.
The test system of test [18] is EKVX NSCLC.

With `COc1ccc(C2S/C(=C\c3cccc([N+](=O)[O-])c3)C(=O)N2NC(=O)Cc2ccccc2)cc1` (stereo unspecified), the TGI in test [1], in test [2], in test [3], in test [4], in test [5] and in test [6] was over 100 µM throughout. Further, the TGI in test [7], in test [8], in test [9], in [10], in test [11] and in [12] was over 100 µM throughout. Also, the TGI in [13], in test [14], in test [15], in [16] and in [17] was over 100 µM each time.
In the case of `CC1(C)OC([C@H](O)CO)C([C@H]2NCCS2)O1` (stereo partly specified), the TGI in test [1], in test [18], in test [2], in test [3], in test [4] and in test [5] was over 100 µM each time. Further, the TGI in test [6], in test [7], in test [8], in test [9], in [10] and in test [11] was over 100 µM in each case. The TGI in test [13], in test [14], in test [15], in [16] and in test [17] was over 100 µM throughout.
On to `CC1=NN(c2ccccc2)C(=O)C1C(=O)C(=O)Nc1ccc(C)cc1C` (stereo unspecified), for which the TGI in [1], in [18], in test [2], in [3], in test [4] and in test [5] was over 100 µM in each case. Also, the TGI in test [6], in test [7], in test [8], in test [9], in test [10] and in [11] was over 100 µM throughout. The TGI in [12], in test [13], in test [14], in [15], in [16] and in [17] was over 100 µM throughout.
With `O=C1NCN(c2ccccc2)C12CCN(CCCSc1ccc(F)cc1)CC2`, the TGI in [1] was over 91.9 µM; in [18], over 100 µM; in test [2], over 100 µM; in test [3] it was over 63.6 µM; in test [4], 97 µM; in [5] it was 51.3 µM. Also, the TGI was 21.7 µM in test [6]; 52.7 µM in test [7]; over 100 µM in [8]; over 100 µM in test [9]; over 96.6 µM in test [10]; over 100 µM in test [11]. Besides, the TGI in [12] is 58.5 µM; in [13], over 100 µM; in test [14] it was over 86.1 µM; in [15], 99.1 µM; in test [16] it was over 69 µM; in test [17] it was over 100 µM.
For the compound `C/C(CN1C(=O)c2ccccc2C1=O)=N\NS(C)(=O)=O`, the TGI in test [1], in test [18], in test [2], in [3], in test [4] and in [5] was over 100 µM in each case. For the same compound, the TGI in test [6], in [7], in test [8], in [9], in test [10] and in [11] was over 100 µM in each case. The TGI in [12], in test [13], in test [14], in [15], in test [16] and in test [17] was over 100 µM throughout.
For the compound `O=C(NC1CCN(Cc2ccccc2)CC1)c1ccccc1I`, the TGI was over 100 µM in test [1]; over 100 µM in [18]; 36.7 µM in test [2]; over 100 µM in [3]; 37.9 µM in test [4]; over 100 µM in [5]. Further, the TGI in test [6] is 33.4 µM; in test [7] it was 31.6 µM; in [8] it was 55.1 µM; in test [9], 27.6 µM; in [10], over 100 µM; in test [11] it was over 100 µM. The TGI in [12] amounted to 63.1 µM; in test [13] it was 43.6 µM; in [15], 63.6 µM; in test [16], 34.9 µM; in [17], 30.1 µM.
As for `C=CCn1c(=S)sc2c(=O)[nH]cnc21`, the TGI in test [1], in test [18], in [2], in [3], in test [4] and in test [5] was over 100 µM each time. Besides, the TGI in test [6], in [7], in test [8], in test [9], in [10] and in test [12] was over 100 µM throughout. Also, the TGI in test [13], in test [14], in test [15], in test [16] and in [17] was over 100 µM each time.
As for `COc1ccc(C2C3=C(CCCC3=O)N(c3ccccc3)C3=C2C(=O)CCC3)cc1`, the TGI in [1], in test [18], in [2], in test [3], in test [5] and in test [6] was over 100 µM in each case. For the same compound, the TGI is over 100 µM in test [8]; over 100 µM in test [10]; 78.7 µM in test [11]; over 100 µM in test [12]; over 100 µM in [13]; over 100 µM in [14]. In addition, the TGI in test [15], in [16] and in test [17] was over 100 µM each time.
As to `Clc1ccc(CCn2cncn2)c(Cl)c1`, the TGI in [1], in test [18], in test [2], in test [3], in test [4] and in test [5] was over 100 µM each time. Also, the TGI in test [6], in test [8], in [9], in [10], in [12] and in test [13] was over 100 µM throughout. Also, the TGI in [14], in test [15], in test [16] and in test [17] was over 100 µM in each case.
As to `COC1=CC(=O)C2[C@H]3Cc4ccccc4[C@H]3C2(C)C1=O` (stereo partly specified), the TGI in test [1], in test [18], in test [2], in test [4], in test [5] and in [6] was over 100 µM each time. Further, the TGI in test [7], in test [8], in test [9], in [10], in [11] and in [12] was over 100 µM throughout. Further, the TGI in test [13], in test [14], in test [15], in [16] and in test [17] was over 100 µM each time.
For `COc1ccc(-n2nnnc2C2(Nc3ccccc3)CCN(Cc3ccccc3)CC2)cc1`, the TGI in [18] turned out to be 92 µM; in [2], 25.1 µM; in test [3], 8.14 µM; in test [4], 56.2 µM; in test [5], 41.2 µM; in test [6] it was 32 µM. Moreover, the TGI in [7] was 27.3 µM; in [10], over 100 µM; in [11], 33.8 µM; in test [12], 34.6 µM; in [13], 86.2 µM; in [14], 44.7 µM. The results for the TGI in test [15], in [16] and in test [17] were 40.9 µM, 31.1 µM and 38.9 µM, respectively.
In the case of `COc1cc([C@@H]2c3cc4c(cc3[C@@H](NC(=O)c3ccc([N+](=O)[O-])cc3)C3COC(=O)[C@@H]32)OCO4)cc(OC)c1O` (stereo partly specified), the TGI was 8.42 µM in [1]; 6.55 µM in test [18]; 6.43 µM in test [2]; 0.407 µM in test [3]; 1.12 µM in [4]; 3.44 µM in test [5]. Also, the TGI is over 100 µM in test [6]; 4.89 µM in [7]; 1.31 µM in test [8]; 2.09 µM in test [9]; over 100 µM in test [10]; 34.8 µM in test [11]. In addition, the TGI in test [12] was 2.06 µM; in [13], 1.89 µM; in test [14], 4.86 µM; in [15], 5.86 µM; in test [16] it was 2.04 µM; in test [17], 10.4 µM.
As for `O=C1/C(=C/c2cccc3ccccc23)Cc2ccccc21`, the TGI in test [1], in [18], in test [2], in test [3], in test [5] and in test [6] was over 100 µM in each case. In addition, the TGI in test [8] was over 100 µM; in [10], 53 µM; in [11] it was 39.2 µM; in test [12], 79.4 µM; in test [13], 47.2 µM; in test [14], over 100 µM. For the same compound, the TGI in [15], in test [16] and in [17] was over 100 µM each time.
`C/C(CC(=O)Nc1ccc([N+](=O)[O-])cc1)=N/N=C(N)N`: the TGI in test [18], in test [3], in [4], in [5], in test [6] and in test [7] was over 100 µM in each case. For the same compound, the TGI in [8], in test [9], in test [11], in test [12], in test [13] and in test [14] was over 100 µM each time. Also, the TGI in [15], in test [16] and in test [17] was over 100 µM in each case.
Take `O=C1CSc2ccncc2N1`: the TGI in [1], in test [18], in test [2], in test [3], in test [4] and in test [5] was over 100 µM each time. The TGI in [6], in test [7], in [8], in test [10], in [11] and in test [12] was over 100 µM in each case. Further, the TGI in test [14], in test [15], in test [16] and in test [17] was over 100 µM each time.
As for `CCCN1CN(C(C(=O)N[C@@H]2C(=O)N3C(C(=O)O)=C(C)CSC23)c2ccccc2)CSC1=S` (stereo partly specified), the TGI in test [18], in [2], in test [3], in test [4], in [5] and in test [6] was over 100 µM in each case. Further, the TGI is over 100 µM in [7]; over 100 µM in test [8]; over 100 µM in test [9]; over 100 µM in test [10]; 82.5 µM in [11]; over 100 µM in test [12]. Besides, the TGI in test [13], in test [14], in test [15], in test [16] and in test [17] was over 100 µM each time.
